Our source for the Emax, EC50 and Ki values is patent US10130615B2, “Benzomorphan analogs and the use thereof” (priority 2014, dated 2018).

The target of experiment [1] is T1, μ-opioid receptor (Homo sapiens, UniProt P35372). Nature of the experiment: cell-based. Details: purchased Perkin Elmer, Shelton, Conn. Particulars: U2OS cells; for Emax: read-out: β-Arr2 μ Emax; for EC50: read-out: β-Arr2 μ EC50.
The target of experiment [2] is T1, μ-opioid receptor. Nature of the experiment: μ-opioid receptor GTPγS functional assay, U2OS cells.
Experiment [3] concerns the target T2, κ-opioid receptor (Homo sapiens, UniProt P41145). Nature of the experiment: κ-opioid receptor GTPγS functional assay, U2OS cells. In kind it is biochemical. Details: expressed in transfected cells; host or cells: U-2 OS. Particulars: U2OS cells. Here is the method: (§1) Plates were incubated for 30 min at a temperature of about 25° C. with shaking.
Experiment [4] addresses T2, κ-opioid receptor. Nature of the experiment: κ-opioid receptor β-Arr2 activity response, U2OS cells. In kind it is cell-based. The arrangement: expressed in transfected cells; host or cells: U-2 OS.
Experiment [5] deals with T2, κ-opioid receptor. Nature of the experiment: κ-opioid receptor radioligand binding assay ([3H]-U69,593). Details: expressed in transfected cells; host or cells: HEK-293. Here is the method: κ-opioid Receptor Binding Assay Procedures: Membranes from recombinant HEK-293 cells expressing the human κ opioid receptor (κ) (cloned in house) were prepared by lysing cells in ice cold hypotonic buffer (2.5 mM MgCl2, 50 mM HEPES, pH 7.4) (10 mL/10 cm dish) followed by homogenization with a tissue grinder/Teflon pestle. Membranes were collected by centrifugation at 30,000×g for 15 min at 4° C. and pellets were resuspended in hypotonic buffer to a final concentration of 1-3 mg/mL. Protein concentrations were determined using the BioRad protein assay reagent with bovine serum albumen as standard. Aliquots of κ receptor membranes were stored at −80° C.
Radioligand dose displacement assays used 0.4 nM [^3H]-U69,593 (GE Healthcare, Piscataway, N.J.; 40 Ci/mmole) with 15 μg membrane protein (recombinant κ opioid receptor expressed in HEK 293 cells; in-house prep) in a final volume of 200 μl binding buffer (5% DMSO, 50 mM Trizma base, pH 7.4). Non-specific binding was determined in the presence of 10 μM unlabeled naloxone or U69,593. All reactions were performed in 96-well polypropylene plates for 1 hr at a temperature of about 25° C.

Experiment [6] has as its target T2, κ-opioid receptor. Description: κ-opioid receptor [35S]GTPγS functional assay, HEK-293 or CHO cells. Format: biochemical. The arrangement: expressed in transfected cells; host or cells: HEK-293. Particulars: for Emax: relative to U69,593. Here is the method: as §1
For orientation: GTPγS is a poorly hydrolysed GTP analogue; its binding reports G protein activation.

Experiment [7] concerns the target T1, μ-opioid receptor. Description: biochemical. Particulars: HEK-293 or CHO cells; for EC50: read-out: GTPγS μ EC50; for Emax: relative to DAMGO, read-out: GTPγS μ Emax. Details: purchased Perkin Elmer, Shelton, Conn; host or cells: HEK-293 or CHO.
The mark [8] stands for this setting: U2OS cells, read-out: β-Arr2 κ EC50.
[9] abbreviates: HEK-293 or CHO cells, read-out: Ki (nM) Opioid Receptor κ.
[10] abbreviates: HEK-293 or CHO cells, read-out: GTPγS κ EC50.

Molecules are shown by their SMILES. Read-outs that look alike come from different tables or passages of the source.

T1 sequence (P35372 whole entry, species assumed): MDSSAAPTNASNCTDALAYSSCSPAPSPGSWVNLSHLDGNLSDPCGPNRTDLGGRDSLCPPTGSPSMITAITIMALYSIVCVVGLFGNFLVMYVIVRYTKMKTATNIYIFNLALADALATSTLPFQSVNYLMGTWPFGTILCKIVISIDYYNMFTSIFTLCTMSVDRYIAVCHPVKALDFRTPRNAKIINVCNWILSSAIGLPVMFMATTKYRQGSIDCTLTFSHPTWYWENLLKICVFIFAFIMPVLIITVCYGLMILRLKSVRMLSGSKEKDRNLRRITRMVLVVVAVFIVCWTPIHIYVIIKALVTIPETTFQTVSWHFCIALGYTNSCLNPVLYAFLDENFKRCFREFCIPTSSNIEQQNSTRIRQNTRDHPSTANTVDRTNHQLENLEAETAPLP
T2 sequence (P41145 whole entry): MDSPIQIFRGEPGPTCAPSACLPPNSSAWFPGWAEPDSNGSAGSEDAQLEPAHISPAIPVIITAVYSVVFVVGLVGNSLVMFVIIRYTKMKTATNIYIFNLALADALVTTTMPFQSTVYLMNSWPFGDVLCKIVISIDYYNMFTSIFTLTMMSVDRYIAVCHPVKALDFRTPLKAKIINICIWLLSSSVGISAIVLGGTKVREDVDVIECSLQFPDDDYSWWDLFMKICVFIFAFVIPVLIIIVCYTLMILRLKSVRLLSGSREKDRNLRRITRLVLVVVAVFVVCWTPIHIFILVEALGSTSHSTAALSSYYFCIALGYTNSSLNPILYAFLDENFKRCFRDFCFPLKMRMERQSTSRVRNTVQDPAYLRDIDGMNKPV

On to `C[C@H]1[C@H]2Cc3ccc(O)cc3[C@]1(CCNC(=O)Nc1ccc(C(=O)O)cc1)CCN2CC1CC1` [Compound 2, 4-(3-(2-((2R,6R,11R)-3-(cyclopropyl-methyl)-8-hydroxy-11-methyl-2,3,4,5-tetrahydro-2,6-methanobenzo[d]azocin-6(1H)-yl)ethyl)ureido)benzoic acid], for which the Emax (as a rule, the maximal effect, on the per cent scale that the assay sets) is -1.5% on μ-opioid receptor [1], 72.5 ± 1.5% at μ-opioid receptor [2] (read-out: GTPγS μ Emax), 106 ± 2.52% at κ-opioid receptor [3] and 28.7 ± 4.67% at κ-opioid receptor [4] (U2OS cells). The results for the concentration giving a half-maximal response (EC50) at μ-opioid receptor [2], on κ-opioid receptor [3] (read-out: GTPγS κ EC50) and on κ-opioid receptor [4] (setting [8]) were 1.89 ± 0.18 nM, 4.11 ± 0.25 nM and 8.4 ± 1.86 nM, respectively. For the same molecule, the inhibitory constant (Ki) (usually a dissociation constant, usually derived from enzyme kinetics or from competition with a known ligand) on κ-opioid receptor [5] (setting [9]) was 7.08 ± 0.71 nM.

With `C[C@H]1[C@H]2Cc3ccc(O)cc3[C@]1(CCN1CCS(=O)(=O)CC1)CCN2C` [Compound 10, 4-(2-((2R,6R,11R)-8-hydroxy-3,11-dimethyl-2,3,4,5-tetrahydro-2,6-methanobenzo[d]azocin-6(1H)-yl)-ethyl)thiomorpholine 1,1-dioxide], the concentration giving a half-maximal response (EC50) (in general, the midpoint of the concentration-response curve) amounted to 129 ± 34.4 nM at μ-opioid receptor [1], 4660 ± 1720 nM at κ-opioid receptor [4] (setting [8]), 516 ± 33.9 nM on κ-opioid receptor [6] (setting [10]) and 133 ± 16.1 nM at μ-opioid receptor [7]. Further, the Emax on μ-opioid receptor [1] was determined as 2.83 ± 0.27%; at κ-opioid receptor [4] (U2OS cells) it was 17.2 ± 0.97%; at κ-opioid receptor [6] (HEK-293 or CHO cells), 26.6 ± 1.52%; at μ-opioid receptor [7], 51 ± 1.08%. Further, the Ki at κ-opioid receptor [5] (setting [9]) came to 77 ± 2.02 nM.

For `COc1ccc2c(c1)[C@@]1(CCO)CCN(CC3CC3)[C@@H](C2)[C@H]1C` [Compound 46, 2-((2S,6R,11S)-3-(cyclopropylmethyl)-8-methoxy-11-methyl-2,3,4,5-tetrahydro-2,6-methanobenzo[d]azocin-6(1H)-yl)ethan-1-ol], the Ki at κ-opioid receptor [5] came out at 3580 ± 457 nM.

As to `C[C@H]1[C@H]2Cc3ccc(O)cc3[C@]1(CCO)CCN2C` [Compound 12, (2R,6S,11R)-6-(2-hydroxyethyl)-3,11-dimethyl-1,2,3,4,5,6-hexahydro-2,6-methanobenzo[d]azocin-8-ol], the 50% effective concentration (EC50) was 386 ± 89.5 nM on μ-opioid receptor [1], 5520 ± 4650 nM at κ-opioid receptor [4], 344 ± 32.6 nM on κ-opioid receptor [6] and 237 ± 36.2 nM on μ-opioid receptor [7]. Also, the Emax at μ-opioid receptor [1] is 8.83 ± 0.44%; at κ-opioid receptor [4] (U2OS cells) it was 12.7 ± 1.57%; on κ-opioid receptor [6] (HEK-293 or CHO cells), 37.1 ± 1.43%; at μ-opioid receptor [7], 58.2 ± 1.65%. The molecule further had a Ki at κ-opioid receptor [5] of 22.4 ± 3.57 nM.

Consider `C[C@H]1[C@H]2Cc3ccc(O)cc3[C@]1(CCNS(C)(=O)=O)CCN2C` [Compound 13, N-(2-((2R,6S,11R)-8-hydroxy-3,11-dimethyl-2,3,4,5-tetrahydro-2,6-methanobenzo[d]azocin-6(1H)-yl)ethyl)methanesulfonamide], for which the Emax is -1% on μ-opioid receptor [1], 30.8 ± 0.19% at κ-opioid receptor [6] (HEK-293 or CHO cells) and 25 ± 1.53% on μ-opioid receptor [7]. For the same molecule, the inhibition constant (Ki) at κ-opioid receptor [5] (setting [9]) is 20.5 ± 3.21 nM. Besides, the EC50 at κ-opioid receptor [6] (setting [10]) came to 166 ± 1.48 nM; on μ-opioid receptor [7] it was 285 ± 72 nM.

Turning to `C[C@H]1[C@H]2Cc3ccc(O)cc3[C@]1(CCNC(=O)[C@@H]1CCCCN1)CCN2CC1CC1` [Compound 11, (S)-N-(2-((2R,6R,11R)-3-(cyclopropyl-methyl)-8-hydroxy-11-methyl-2,3,4,5-tetrahydro-2,6-methanobenzo[d]azocin-6(1H)-yl)ethyl)piperidine-2-carboxamide], the Emax was -1.5% on μ-opioid receptor [1], 84 ± 3.63% on κ-opioid receptor [6] (HEK-293 or CHO cells) and 23 ± 1.38% on μ-opioid receptor [7]. The inhibitory constant (Ki) on κ-opioid receptor [5] (setting [9]) worked out at 0.17 ± 0.044 nM. For the same molecule, the EC50 was 1.04 ± 0.059 nM on κ-opioid receptor [6] (setting [10]) and 18.3 ± 5.58 nM at μ-opioid receptor [7].
